The numbers were not newly measured in patent US20070027075A1, “Compositions and methods for targeted drug delivery” (priority 2003, published 2007), which cites them from elsewhere.

In this data set the target is prostate-specific antigen (Homo sapiens, UniProt P07288). Particulars: PSA.
Chain of prostate-specific antigen (P07288 25-261): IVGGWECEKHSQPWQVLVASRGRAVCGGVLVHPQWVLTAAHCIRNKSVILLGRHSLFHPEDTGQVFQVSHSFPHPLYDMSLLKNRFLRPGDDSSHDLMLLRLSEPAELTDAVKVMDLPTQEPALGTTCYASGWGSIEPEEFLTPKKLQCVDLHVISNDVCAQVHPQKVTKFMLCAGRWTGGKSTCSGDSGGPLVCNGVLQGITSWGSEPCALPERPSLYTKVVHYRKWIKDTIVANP

With CVFTSDYAFC, the Kd (usually the constant that tells how readily two partners part at equilibrium) is 8 µM.
